Assays:
[1] = Alendronate-conjugated peptides on bone metabolism in 2-month-old female mice; type: in vivo; conditions: at the two doses used
Procedure: FIGS. 15A-15C show two-month-old female mice treated with PBS control; YLL3-Aln or YLL8-Aln at 100 […], subcutaneously, once every two weeks for 2 doses; or YLL3-Aln or YLL8-Aln at 500 m/kg, one IV dose. Mice were euthanized at 28 days (n=4-5/group).
Trabecular bone formation was measured in the distal femoral metaphysis. *, p<0.05 vs PBS. Arrows show double labeled bone surfaces.
Next, the effects of alendronate-conjugated peptides on bone metabolism were evaluated. Two-month-old female mice were treated with PBS control, YLL3-Ale or YLL8-Ale at 100 μg/kg (25 nmol) or 300 μg/kg (75 nmol), subcutaneously, once every other week, or with one IV dose of 500 μg/kg. Two injections were given per mouse. The total cumulative doses were between 200 and 600 μg/kg/month (25-150 nmol), respectively. Alendronate concentration was approximately 1/10-⅕ of the compound. […] In contrast, YLL8-Ale at the 300 μg/kg×2 SC doses or 500 μg/kg×1 IV dose increased trabecular bone volume by more than 20% (p<0.05 vs. PBS) which was associated with increased trabecular thickness (30%, p<0.05 vs. PBS) (FIG. 15A and FIG. 15B) and number (28%, p<0.05 vs. PBS). Both 100 μg/kg and 300 μg/kg doses of YLL8-Ale increased cortical bone volume by approximately 16% and cortical thickness by approximately 15% (FIG. 15C).

[2] = In vivo anabolic effects, 4-month-old mice, 5 μg/kg s.c. 5×/week for 21 days; conditions: for increase in femoral trabecular bone volume: vs PBS, YLL8 5 μg/kg, hPTH (1-34) 25 μg/kg
Procedure: FIGS. 10A-10D show the effects of YLL8 on bone formation in vivo. […] All mice received Alizarin red and Calcein at −7 and −2 days before euthanization.
Four-month-old female and male mice were treated with PBS control, YLL3 at 5 μg/kg, YLL8 at 5 μg/kg, or PTH at 25 μg/kg, sc., 5×/week for 28 days (n=4-6/group). Trabecular bone volume was obtained by micro CT scans at the distal femoral metaphysis. Osteocalcin and CTX-1 were measured at the serum.
In another similar study to determine whether YLLs would affect bone metabolism in vivo, YLL3 and YLL8 were injected into 4-month-old female and male mice at 5 μg/kg subcutaneously ([…]). hPTH (1-34) was injected s.c. at 25 μg/kg, 5×/week as a positive control. […] Both YLL8 and hPTH (1-34) increased femoral trabecular bone volume by approximately 130% in the female mice, compared to the PBS-treated mice. In the male mice, YLL8 increase femoral trabecular bone volume by approximately 70%, and hPTH (1-34) increased femoral trabecular bone volume by approximately 30% (FIG. 10A). Mineral apposition rate, a parameter corresponding to osteoblast activity, was increased by more than 70% in the females and about 30% in the males, resulting in an overall increase in surface-based bone formation rate (FIGS. 10A, 10B). The anabolic effect of YLLs was confirmed by increased trabecular bone mass measured at the distal femur metaphysis by micro CT and serum level of osteocalcin (FIG. 11).

SMILES: Cc1ccccc1NC(=O)Nc1ccc(CC(=O)N[C@@H](CCCNC(N)=O)C(=O)N[C@@H](CCC(=O)O)C(=O)N[C@@H](CO)C(=O)N[C@H](C(=O)NCCOCCOCCNC(=O)CCC(=O)NCCOCCOCCNC(=O)CCC(=O)N[C@@H](CCCCNC(=O)[C@H](N)CSC2CC(=O)N(CC3CCC(C(=O)NCCCC(O)(P(=O)(O)O)P(=O)(O)O)CC3)C2=O)C(N)=O)C(C)C)cc1 (stereo partly shown) [YLL3-Ale]
- bone formation or bone mass compared to PBS control [1]: failed to achieve statistically significant differences

SMILES: Cc1ccccc1NC(=O)Nc1ccc(CC(=O)N[C@@H](CCCCNC(=O)CCc2cccnc2)C(=O)N[C@@H](CCCC(=O)O)C(=O)NC2(C(N)=O)CCCCC2)cc1 [YLL8]
- body weights and visible side-effects ([2]; 5 μg/kg s.c., daily injection for 21 days): did not change body weights or cause any visible side-effects

SMILES: CC[C@H](C)[C@H](NC(=O)[C@H](CCC(=O)O)NC(=O)[C@H](CO)NC(=O)[C@@H](NC(=O)[C@@H](N)CO)C(C)C)C(=O)N[C@@H](CCC(N)=O)C(=O)N[C@@H](CC(C)C)C(=O)N[C@@H](CCSC)C(=O)N[C@@H](Cc1cnc[nH]1)C(=O)N[C@@H](CC(N)=O)C(=O)N[C@@H](CC(C)C)C(=O)NCC(=O)N[C@@H](CCCCN)C(=O)N[C@@H](Cc1cnc[nH]1)C(=O)N[C@@H](CC(C)C)C(=O)N[C@@H](CC(N)=O)C(=O)N[C@@H](CO)C(=O)N[C@@H](CCSC)C(=O)N[C@@H](CCC(=O)O)C(=O)N[C@@H](CCCN=C(N)N)C(=O)N[C@H](C(=O)N[C@@H](CCC(=O)O)C(=O)N[C@@H](Cc1c[nH]c2ccccc12)C(=O)N[C@@H](CC(C)C)C(=O)N[C@@H](CCCN=C(N)N)C(=O)N[C@@H](CCCCN)C(=O)N[C@@H](CCCCN)C(=O)N[C@@H](CC(C)C)C(=O)N[C@@H](CCC(N)=O)C(=O)N[C@@H](CC(=O)O)C(=O)N[C@H](C(=O)N[C@@H](Cc1cnc[nH]1)C(=O)N[C@@H](CC(N)=O)C(=O)N[C@@H](Cc1ccccc1)C(=O)O)C(C)C)C(C)C [hPTH (1-34), Teriparatide]
- increase in femoral trabecular bone volume ([2]; female mice): approximately 130%
- increase in femoral trabecular bone volume ([2]; male mice): approximately 30%
